# Assays:
# Experiment in all cases: KinomeScan kinase panel
# Format in all cases: binding
# AKT3 = molecular target: T1, AKT3 (Homo sapiens, UniProt Q9Y243)
# T1 construct: purchased DiscoveRx Corporation (KinomeScan)
# How it was run: (§1)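 Single-point screen: 1000 nM compound, KinomeScan panel of 442 kinases.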
# BMX = molecular target: T2, BMX (Homo sapiens, UniProt P51813)
# T2 construct: purchased DiscoveRx Corporation (KinomeScan)
# How it was run: as §1
# BRK = molecular target: T3, BRK (Homo sapiens, UniProt Q13882)
# T3 construct: purchased DiscoveRx Corporation (KinomeScan)
# How it was run: as §1
# CAMK1G = molecular target: T4, CAMK1G (Homo sapiens, UniProt Q96NX5)
# T4 construct: purchased DiscoveRx Corporation (KinomeScan)
# How it was run: as §1
# CAMKK1 = molecular target: T5, CAMKK1 (Homo sapiens, UniProt Q8N5S9)
# T5 construct: purchased DiscoveRx Corporation (KinomeScan)
# T5 sequence (Q8N5S9 whole entry): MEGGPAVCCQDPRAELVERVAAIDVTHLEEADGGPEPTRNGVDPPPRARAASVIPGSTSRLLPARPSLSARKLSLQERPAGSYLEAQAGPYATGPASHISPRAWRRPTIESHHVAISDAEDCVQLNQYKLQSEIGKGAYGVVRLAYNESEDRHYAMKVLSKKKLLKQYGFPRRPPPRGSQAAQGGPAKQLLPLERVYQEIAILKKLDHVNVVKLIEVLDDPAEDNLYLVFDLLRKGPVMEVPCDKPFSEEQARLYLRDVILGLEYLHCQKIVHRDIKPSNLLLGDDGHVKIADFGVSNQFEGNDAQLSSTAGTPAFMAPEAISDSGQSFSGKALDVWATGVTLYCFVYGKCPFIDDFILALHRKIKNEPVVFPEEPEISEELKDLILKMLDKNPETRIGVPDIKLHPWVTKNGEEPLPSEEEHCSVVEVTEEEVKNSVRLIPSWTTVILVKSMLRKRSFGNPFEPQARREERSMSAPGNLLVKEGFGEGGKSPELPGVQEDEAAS
# How it was run: as §1
# CAMKK2 = molecular target: T6, CAMKK2 (Homo sapiens, UniProt Q96RR4)
# T6 construct: purchased DiscoveRx Corporation (KinomeScan)
# T6 sequence (Q96RR4 whole entry): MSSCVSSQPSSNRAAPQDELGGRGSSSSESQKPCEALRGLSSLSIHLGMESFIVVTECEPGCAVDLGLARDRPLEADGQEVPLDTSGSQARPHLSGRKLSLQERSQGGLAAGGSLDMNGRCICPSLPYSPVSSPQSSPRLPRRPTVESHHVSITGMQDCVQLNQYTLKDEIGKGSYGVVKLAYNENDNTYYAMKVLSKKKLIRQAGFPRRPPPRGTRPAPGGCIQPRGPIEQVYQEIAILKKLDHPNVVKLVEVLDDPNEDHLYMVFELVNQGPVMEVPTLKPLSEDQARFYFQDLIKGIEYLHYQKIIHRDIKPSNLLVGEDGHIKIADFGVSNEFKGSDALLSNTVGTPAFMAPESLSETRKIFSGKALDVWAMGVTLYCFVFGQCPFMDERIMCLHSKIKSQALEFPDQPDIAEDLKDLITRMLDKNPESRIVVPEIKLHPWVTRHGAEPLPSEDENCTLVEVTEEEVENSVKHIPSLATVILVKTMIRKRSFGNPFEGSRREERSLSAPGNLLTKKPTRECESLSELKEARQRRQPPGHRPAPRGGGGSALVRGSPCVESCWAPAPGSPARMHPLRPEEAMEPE
# How it was run: as §1
# CDK2 = molecular target: T7, CDK2 (Homo sapiens, UniProt P24941)
# T7 construct: purchased DiscoveRx Corporation (KinomeScan)
# How it was run: as §1
# CHEK1 = molecular target: T8, CHEK1 (Homo sapiens, UniProt O14757)
# T8 construct: purchased DiscoveRx Corporation (KinomeScan)
# How it was run: as §1
# CLK3 = molecular target: T9, CLK3 (Homo sapiens, UniProt P49761)
# T9 construct: purchased DiscoveRx Corporation (KinomeScan)
# T9 sequence (P49761 whole entry): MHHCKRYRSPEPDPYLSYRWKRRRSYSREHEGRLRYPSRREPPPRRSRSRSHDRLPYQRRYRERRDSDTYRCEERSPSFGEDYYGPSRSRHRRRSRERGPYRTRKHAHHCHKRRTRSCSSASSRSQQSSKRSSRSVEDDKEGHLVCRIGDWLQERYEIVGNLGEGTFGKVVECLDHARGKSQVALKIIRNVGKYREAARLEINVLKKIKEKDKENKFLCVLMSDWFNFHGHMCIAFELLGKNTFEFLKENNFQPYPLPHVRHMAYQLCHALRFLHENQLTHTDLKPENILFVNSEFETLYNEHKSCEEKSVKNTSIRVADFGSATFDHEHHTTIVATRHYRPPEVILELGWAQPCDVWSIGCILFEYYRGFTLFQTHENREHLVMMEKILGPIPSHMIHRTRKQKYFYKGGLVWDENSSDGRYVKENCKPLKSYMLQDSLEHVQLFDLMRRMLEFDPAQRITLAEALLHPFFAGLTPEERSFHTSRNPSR
# How it was run: as §1
# CSNK2A1 = molecular target: T10, CSNK2A1 (Homo sapiens, UniProt P68400)
# T10 construct: purchased DiscoveRx Corporation (KinomeScan)
# T10 sequence (P68400 whole entry): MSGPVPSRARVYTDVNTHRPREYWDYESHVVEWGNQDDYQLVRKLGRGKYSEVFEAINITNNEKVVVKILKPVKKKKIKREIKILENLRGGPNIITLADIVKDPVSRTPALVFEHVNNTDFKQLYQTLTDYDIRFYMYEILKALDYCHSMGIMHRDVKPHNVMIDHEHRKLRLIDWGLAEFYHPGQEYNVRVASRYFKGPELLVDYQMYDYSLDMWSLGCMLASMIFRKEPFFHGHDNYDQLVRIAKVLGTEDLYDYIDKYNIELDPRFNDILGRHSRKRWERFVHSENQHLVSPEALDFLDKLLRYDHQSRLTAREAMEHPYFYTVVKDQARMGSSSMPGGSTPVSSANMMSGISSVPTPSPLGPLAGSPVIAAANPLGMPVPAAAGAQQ
# How it was run: as §1
# DYRK1B = molecular target: T11, DYRK1B (Homo sapiens, UniProt Q9Y463)
# T11 construct: purchased DiscoveRx Corporation (KinomeScan)
# How it was run: as §1
# DYRK2 = molecular target: T12, DYRK2 (Homo sapiens, UniProt Q92630)
# T12 construct: purchased DiscoveRx Corporation (KinomeScan)
# How it was run: as §1
# EGFR(T790M) = molecular target: T13, EGFR(T790M) (Homo sapiens, UniProt P00533, T790M)
# T13 construct: purchased DiscoveRx Corporation (KinomeScan)
# How it was run: as §1
# ERBB2 = molecular target: T14, ERBB2 (Homo sapiens, UniProt P04626)
# T14 construct: purchased DiscoveRx Corporation (KinomeScan)
# How it was run: as §1
# ERK4 = molecular target: T15, ERK4 (Homo sapiens, UniProt P31152)
# T15 construct: purchased DiscoveRx Corporation (KinomeScan)
# How it was run: as §1
# FLT4 = molecular target: T16, FLT4 (Homo sapiens, UniProt P35916)
# T16 construct: purchased DiscoveRx Corporation (KinomeScan)
# How it was run: as §1
# GSK3A = molecular target: T17, GSK3A (Homo sapiens, UniProt P49840)
# T17 construct: purchased DiscoveRx Corporation (KinomeScan)
# How it was run: as §1
# HIPK1 = molecular target: T18, HIPK1 (Homo sapiens, UniProt Q86Z02)
# T18 construct: purchased DiscoveRx Corporation (KinomeScan)
# How it was run: as §1
# LIMK1 = molecular target: T19, LIMK1 (Homo sapiens, UniProt P53667)
# T19 construct: purchased DiscoveRx Corporation (KinomeScan)
# How it was run: as §1
# LYN = molecular target: T20, LYN (Homo sapiens, UniProt P07948)
# T20 construct: purchased DiscoveRx Corporation (KinomeScan)
# How it was run: as §1
# MAP3K1 = molecular target: T21, MAP3K1 (Homo sapiens, UniProt Q13233)
# T21 construct: purchased DiscoveRx Corporation (KinomeScan)
# How it was run: as §1
# MEK2 = molecular target: T22, MEK2 (Homo sapiens, UniProt P36507)
# T22 construct: purchased DiscoveRx Corporation (KinomeScan)
# How it was run: as §1
# MRCKB = molecular target: T23, MRCKB (Homo sapiens, UniProt Q9Y5S2)
# T23 construct: purchased DiscoveRx Corporation (KinomeScan)
# How it was run: as §1
# MUSK = molecular target: T24, MUSK (Homo sapiens, UniProt O15146)
# T24 construct: purchased DiscoveRx Corporation (KinomeScan)
# How it was run: as §1
# NDR2 = molecular target: T25, NDR2 (Homo sapiens, UniProt Q9Y2H1)
# T25 construct: purchased DiscoveRx Corporation (KinomeScan)
# How it was run: as §1
# NEK4 = molecular target: T26, NEK4 (Homo sapiens, UniProt P51957)
# T26 construct: purchased DiscoveRx Corporation (KinomeScan panel)
# T26 sequence (P51957 whole entry): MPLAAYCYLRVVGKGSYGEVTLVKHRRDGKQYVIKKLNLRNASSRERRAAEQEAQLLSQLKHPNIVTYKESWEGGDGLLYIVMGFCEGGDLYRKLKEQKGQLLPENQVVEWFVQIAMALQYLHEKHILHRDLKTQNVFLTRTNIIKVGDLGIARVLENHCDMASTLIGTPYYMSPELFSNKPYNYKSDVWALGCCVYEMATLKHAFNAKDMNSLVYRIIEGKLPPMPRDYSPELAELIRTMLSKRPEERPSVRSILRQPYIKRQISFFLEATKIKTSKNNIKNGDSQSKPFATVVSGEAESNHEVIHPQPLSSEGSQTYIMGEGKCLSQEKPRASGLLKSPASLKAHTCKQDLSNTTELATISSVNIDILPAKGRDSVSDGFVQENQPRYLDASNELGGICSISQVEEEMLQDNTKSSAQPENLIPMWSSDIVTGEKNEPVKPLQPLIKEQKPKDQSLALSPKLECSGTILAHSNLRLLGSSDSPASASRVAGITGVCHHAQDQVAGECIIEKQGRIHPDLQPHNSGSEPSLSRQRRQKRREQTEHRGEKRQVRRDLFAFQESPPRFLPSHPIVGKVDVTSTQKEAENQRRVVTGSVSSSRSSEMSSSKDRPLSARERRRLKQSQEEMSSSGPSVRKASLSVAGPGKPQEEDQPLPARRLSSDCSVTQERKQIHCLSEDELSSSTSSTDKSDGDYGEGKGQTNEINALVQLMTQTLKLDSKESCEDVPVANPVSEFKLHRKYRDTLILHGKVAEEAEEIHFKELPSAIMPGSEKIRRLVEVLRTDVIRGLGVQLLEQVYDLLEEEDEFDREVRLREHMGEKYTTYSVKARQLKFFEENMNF
# How it was run: as §1
# NEK5 = molecular target: T27, NEK5 (Homo sapiens, UniProt Q6P3R8)
# T27 construct: purchased DiscoveRx Corporation (KinomeScan panel)
# How it was run: as §1
# NEK7 = molecular target: T28, NEK7 (Homo sapiens, UniProt Q8TDX7)
# T28 construct: purchased DiscoveRx Corporation (KinomeScan panel)
# T28 sequence (Q8TDX7 whole entry): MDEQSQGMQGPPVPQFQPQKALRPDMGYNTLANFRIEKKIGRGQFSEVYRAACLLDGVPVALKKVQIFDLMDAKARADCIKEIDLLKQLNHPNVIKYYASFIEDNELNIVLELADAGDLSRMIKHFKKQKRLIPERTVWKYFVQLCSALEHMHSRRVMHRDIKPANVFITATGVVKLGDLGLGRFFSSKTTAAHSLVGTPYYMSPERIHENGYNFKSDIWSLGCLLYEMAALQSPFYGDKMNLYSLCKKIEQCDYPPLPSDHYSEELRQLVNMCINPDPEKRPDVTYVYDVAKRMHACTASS
# How it was run: as §1
# PAKC-alpha = molecular target: T29, PAKC-alpha (Homo sapiens, UniProt P17612)
# T29 construct: purchased DiscoveRx Corporation (KinomeScan)
# How it was run: as §1
# PIM2 = molecular target: T30, PIM2 (Homo sapiens, UniProt Q9P1W9)
# T30 construct: purchased DiscoveRx Corporation (KinomeScan)
# T30 sequence (Q9P1W9 whole entry): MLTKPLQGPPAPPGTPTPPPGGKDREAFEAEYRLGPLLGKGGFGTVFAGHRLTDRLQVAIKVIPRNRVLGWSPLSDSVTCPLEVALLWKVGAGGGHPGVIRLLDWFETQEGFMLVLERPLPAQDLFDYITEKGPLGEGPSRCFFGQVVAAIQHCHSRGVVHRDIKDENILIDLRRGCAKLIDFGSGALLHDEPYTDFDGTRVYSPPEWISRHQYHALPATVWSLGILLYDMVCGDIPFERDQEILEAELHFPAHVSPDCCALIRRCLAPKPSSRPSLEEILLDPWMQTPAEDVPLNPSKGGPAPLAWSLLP
# How it was run: as §1
# PRKCE = molecular target: T31, PRKCE (Homo sapiens, UniProt Q02156)
# T31 construct: purchased DiscoveRx Corporation (KinomeScan)
# How it was run: as §1
# S6K1 = molecular target: T32, S6K1 (Homo sapiens, UniProt P23443)
# T32 construct: purchased DiscoveRx Corporation (KinomeScan)
# How it was run: as §1
# SRPK1 = molecular target: T33, SRPK1 (Homo sapiens, UniProt Q96SB4)
# T33 construct: purchased DiscoveRx Corporation (KinomeScan)
# How it was run: as §1
# SRPK2 = molecular target: T34, SRPK2 (Homo sapiens, UniProt P78362)
# T34 construct: purchased DiscoveRx Corporation (KinomeScan)
# How it was run: as §1
# TIE1 = molecular target: T35, TIE1 (Homo sapiens, UniProt P35590)
# T35 construct: purchased DiscoveRx Corporation (KinomeScan)
# T35 sequence (P35590 22-1138): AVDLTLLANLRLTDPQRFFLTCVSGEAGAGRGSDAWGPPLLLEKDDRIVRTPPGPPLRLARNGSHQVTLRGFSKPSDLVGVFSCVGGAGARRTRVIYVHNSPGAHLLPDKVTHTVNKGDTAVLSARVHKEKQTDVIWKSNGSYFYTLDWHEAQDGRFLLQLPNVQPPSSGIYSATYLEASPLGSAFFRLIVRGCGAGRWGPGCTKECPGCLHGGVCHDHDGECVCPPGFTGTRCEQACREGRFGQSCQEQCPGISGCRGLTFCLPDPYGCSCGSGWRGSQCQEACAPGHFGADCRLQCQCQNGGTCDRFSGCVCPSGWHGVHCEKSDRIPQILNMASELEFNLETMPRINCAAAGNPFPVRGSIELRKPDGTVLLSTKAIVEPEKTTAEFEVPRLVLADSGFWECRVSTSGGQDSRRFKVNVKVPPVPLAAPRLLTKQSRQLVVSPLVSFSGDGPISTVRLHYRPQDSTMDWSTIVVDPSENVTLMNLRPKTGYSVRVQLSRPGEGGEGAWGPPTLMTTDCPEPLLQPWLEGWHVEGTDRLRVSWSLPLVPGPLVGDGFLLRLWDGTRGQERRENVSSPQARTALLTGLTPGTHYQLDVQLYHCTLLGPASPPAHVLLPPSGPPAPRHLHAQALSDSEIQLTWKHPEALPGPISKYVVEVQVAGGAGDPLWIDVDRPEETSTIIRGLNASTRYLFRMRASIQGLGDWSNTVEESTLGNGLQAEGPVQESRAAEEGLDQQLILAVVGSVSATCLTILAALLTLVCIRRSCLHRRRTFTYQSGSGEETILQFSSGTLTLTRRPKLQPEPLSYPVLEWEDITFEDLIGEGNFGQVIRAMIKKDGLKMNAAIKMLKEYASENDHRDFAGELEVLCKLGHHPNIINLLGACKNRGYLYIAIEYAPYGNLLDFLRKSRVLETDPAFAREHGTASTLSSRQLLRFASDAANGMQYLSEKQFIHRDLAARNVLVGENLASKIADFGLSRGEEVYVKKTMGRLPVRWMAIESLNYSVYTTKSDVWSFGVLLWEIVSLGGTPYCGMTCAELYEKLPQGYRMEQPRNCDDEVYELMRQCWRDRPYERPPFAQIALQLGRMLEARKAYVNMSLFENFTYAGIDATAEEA
# How it was run: as §1
# TNK1 = molecular target: T36, TNK1 (Homo sapiens, UniProt Q13470)
# T36 construct: purchased DiscoveRx Corporation (KinomeScan)
# How it was run: as §1
# [1] = molecular target: T37, TYK2(JH1domain-catalytic) (Homo sapiens, UniProt P29597)
# T37 construct: JH1domain; purchased DiscoveRx Corporation (KinomeScan)
# How it was run: as §1
# T1 sequence (Q9Y243 whole entry): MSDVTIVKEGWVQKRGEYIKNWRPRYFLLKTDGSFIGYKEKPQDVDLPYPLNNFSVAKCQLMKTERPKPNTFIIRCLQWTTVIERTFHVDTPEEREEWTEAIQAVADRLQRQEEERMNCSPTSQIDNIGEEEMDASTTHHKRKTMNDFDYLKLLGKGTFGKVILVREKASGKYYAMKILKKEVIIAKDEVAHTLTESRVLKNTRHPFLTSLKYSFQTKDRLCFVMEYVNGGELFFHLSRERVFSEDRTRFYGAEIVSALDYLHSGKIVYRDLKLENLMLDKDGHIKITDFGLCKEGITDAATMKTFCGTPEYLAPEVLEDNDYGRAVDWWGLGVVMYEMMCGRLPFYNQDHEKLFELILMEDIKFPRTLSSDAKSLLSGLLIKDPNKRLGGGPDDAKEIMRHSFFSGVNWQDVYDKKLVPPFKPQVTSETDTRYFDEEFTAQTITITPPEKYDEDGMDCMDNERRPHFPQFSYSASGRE
structure (smiles),measurement,setting,value
"CCOP(=O)(CN1CCC(COc2cc3nccc(Oc4ccc(NC(=O)C5(C(=O)Nc6ccc(F)cc6)CC5)cc4F)c3cc2OC)CC1)OCC [Example 10, N1-[4-[[7-[[1-(diethoxyphosphorylmethyl)-4-piperidinyl]methoxyl]-6-methoxyl-4-quinolyl]oxyl]-3-fluorophenyl]-N1′-(4-fluorophenyl)cyclopropane-1,1-dicarboxamide]",% Ctrl@1000 nM,AKT3,100 % Ctrl
same,% Ctrl@1000 nM,BMX,92 % Ctrl
same,% Ctrl@1000 nM,BRK,3.0 % Ctrl
same,% Ctrl@1000 nM,CAMK1G,88 % Ctrl
same,% Ctrl@1000 nM,CAMKK1,32 % Ctrl
same,% Ctrl@1000 nM,CAMKK2,81 % Ctrl
same,% Ctrl@1000 nM,CDK2,100 % Ctrl
same,% Ctrl@1000 nM,CHEK1,100 % Ctrl
same,% Ctrl@1000 nM,CLK3,100 % Ctrl
same,% Ctrl@1000 nM,CSNK2A1,100 % Ctrl
same,% Ctrl@1000 nM,DYRK1B,86 % Ctrl
same,% Ctrl@1000 nM,DYRK2,100 % Ctrl
same,% Ctrl@1000 nM,EGFR(T790M),100 % Ctrl
same,% Ctrl@1000 nM,ERBB2,96 % Ctrl
same,% Ctrl@1000 nM,ERK4,100 % Ctrl
same,% Ctrl@1000 nM,FLT4,0.2 % Ctrl
same,% Ctrl@1000 nM,GSK3A,100 % Ctrl
same,% Ctrl@1000 nM,HIPK1,92 % Ctrl
same,% Ctrl@1000 nM,LIMK1,92 % Ctrl
same,% Ctrl@1000 nM,LYN,18 % Ctrl
same,% Ctrl@1000 nM,MAP3K1,80 % Ctrl
same,% Ctrl@1000 nM,MEK2,33 % Ctrl
same,% Ctrl@1000 nM,MRCKB,100 % Ctrl
same,% Ctrl@1000 nM,MUSK,13 % Ctrl
same,% Ctrl@1000 nM,NDR2,82 % Ctrl
same,% Ctrl@1000 nM,NEK4,100 % Ctrl
same,% Ctrl@1000 nM,NEK5,97 % Ctrl
same,% Ctrl@1000 nM,NEK7,100 % Ctrl
same,% Ctrl@1000 nM,PAKC-alpha,100 % Ctrl
same,% Ctrl@1000 nM,PIM2,67 % Ctrl
same,% Ctrl@1000 nM,PRKCE,100 % Ctrl
same,% Ctrl@1000 nM,S6K1,89 % Ctrl
same,% Ctrl@1000 nM,SRPK1,70 % Ctrl
same,% Ctrl@1000 nM,SRPK2,100 % Ctrl
same,% Ctrl@1000 nM,TIE1,4 % Ctrl
same,% Ctrl@1000 nM,TNK1,30 % Ctrl
same,% Ctrl@1000 nM,[1],92 % Ctrl

# From patent US8933230B2, “Phosphorus-containing group-substituted quinoline, its preparation process, medical composition containing the compounds and application” (priority 2011, dated 2015)
